Test system: H1N1 (influenza A/New Caledonia/20/99)
Experiment: microbe, parasite or virus in culture
Type: cell-based
Conditions: Influenza A virus, H1N1, A549, 48 h

Row | SMILES | IC50 [µM]
1 | Cc1ccc(NC(=O)c2c(NC(=O)C3CCCCC3C(=O)O)sc3c2CCC3)cc1C (centres unmarked) [Compound 1, 2-[[3-[(3,4-Dimethylphenyl)carbamoyl]-5,6-dihydro-4H-cyclopenta[b]thiophen-2-yl]carbamoyl]cyclohexanecarboxylic acid] | 7.78
2 | O=C(NCC1CCCCC1)c1c(NC(=O)C2CCCCC2C(=O)O)sc2c1CCC2 (centres unmarked) [Compound 24, 2-[[3-(Cyclohexylmethylcarbamoyl)-5,6-dihydro-4H-cyclopenta[b]thiophen-2-yl]carbamoyl]cyclohexanecarboxylic acid] | 12.3
3 | O=C(Nc1ccc(Cl)cc1)c1c(NC(=O)C2COC2)sc2c1CCC2 [Compound 94, N-[3-[(4-chlorophenyl)carbamoyl]-5,6-dihydro-4H-cyclopenta[b]thiophen-2-yl]oxetane-3-carboxamide] | 12.9
4 | CS(=O)(=O)c1ccc(NC(=O)c2c(NC(=O)C3CCCCC3C(=O)O)sc3c2CCC3)cc1 (centres unmarked) [Compound 31, 2-[[3-[(4-Methylsulfonylphenyl)carbamoyl]-5,6-dihydro-4H-cyclopenta[b]thiophen-2-yl]carbamoyl]cyclohexanecarboxylic acid] | 27.3
5 | O=C(Nc1ccc(-c2ccccc2)cc1)c1c(NC(=O)C2CCCCC2C(=O)O)sc2c1CCC2 (centres unmarked) [Compound 10, 2-[[3-[(4-Phenylphenyl)carbamoyl]-5,6-dihydro-4H-cyclopenta[b]thiophen-2-yl]carbamoyl]cyclohexanecarboxylic acid] | 2.38
6 | O=C(Nc1ccc(C(F)(F)F)nc1)c1c(NC(=O)C2CCCCC2C(=O)O)sc2c1CCC2 (centres unmarked) [Compound 32, 2-[[3-[[6-(Trifluoromethyl)-3-pyridyl]carbamoyl]-5,6-dihydro-4H-cyclopenta[b]thiophen-2-yl]carbamoyl]cyclohexanecarboxylic acid] | 22
7 | O=C(Nc1ccc(Cl)cc1)c1c(NC(=O)C2CCCCC2C(=O)O)sc2c1CCOC2 (centres unmarked) [Compound 37, 2-[[3-[(4-Chlorophenyl)carbamoyl]-5,7-dihydro-4H-thieno[2,3-c]pyran-2-yl]carbamoyl]cyclohexanecarboxylic acid] | 43.4
8 | O=C(Nc1ccc(Cl)cc1)c1c(NC(=O)C2CCCCC2)sc2c1CCC2 [Compound 52, N-(4-Chlorophenyl)-2-(cyclohexanecarbonylamino)-5,6-dihydro-4H-cyclopenta[b]thiophene-3-carboxamide] | 29.3
9 | O=C(Nc1ccccc1)c1c(NC(=O)C2CCCCC2C(=O)O)sc2c1CCC2 (centres unmarked) [Compound 74, 2-[[3-(Phenylcarbamoyl)-5,6-dihydro-4H-cyclopenta[b]thiophen-2-yl]carbamoyl]cyclohexanecarboxylic acid] | 12.4
10 | Cc1cccc(NC(=O)c2c(NC(=O)C3CC=CCC3C(=O)O)sc3c2CCCC3)c1 (centres unmarked) [Compound 68, 6-[[3-(m-Tolylcarbamoyl)-4,5,6,7-tetrahydrobenzothiophen-2-yl]carbamoyl]cyclohex-3-ene-1-carboxylic acid] | 11.7
11 | NS(=O)(=O)N1CCCCC1C(=O)Nc1sc2c(c1C(=O)Nc1ccc(Cl)cc1)CCC2 (centres unmarked) [Compound 80, N-[3-[(4-chlorophenyl)carbamoyl]-5,6-dihydro-4H-cyclopenta[b]thiophen-2-yl]-1-sulfamoyl-piperidine-2-carboxamide] | 2.25
12 | Cc1ccc(NC(=O)c2c(NC(=O)C3CCCCC3C(=O)O)sc3c2CCC3)cc1 (centres unmarked) [Compound 66, 2-[[3-(p-Tolylcarbamoyl)-5,6-dihydro-4H-cyclopenta[b]thiophen-2-yl]carbamoyl]cyclohexanecarboxylic acid] | 11.7
13 | CC1CCC(NC(=O)c2c(NC(=O)C3CCCCC3C(=O)O)sc3c2CCC3)CC1 (centres unmarked) [Compound 35, 2-[[3-[(4-Methylcyclohexyl)carbamoyl]-5,6-dihydro-4H-cyclopenta[b]thiophen-2-yl]carbamoyl]cyclohexanecarboxylic acid] | 12.4
14 | O=C(Nc1ccc(Cl)cc1)c1c(NC(=O)C2CCCCC2C(=O)O)sc2c1CSC2 (centres unmarked) [Compound 38, 2-[[3-[(4-Chlorophenyl)carbamoyl]-4,6-dihydrothieno[3,4-b]thiophen-2-yl]carbamoyl]cyclohexanecarboxylic acid] | 6.44

From patent publication US11279683B2, “Thiophene derivatives as antiviral agents” (ENYO PHARMA, priority 2016, dated 2022)
